Data taken from US20090082425A1 (priority 2007, published 2009).

Test system: DU-145
Format: cell-based, human

In the case of `CC(=O)O[C@H]1C(=O)[C@@]2(C)[C@H]([C@H](OC(=O)c3ccccc3)[C@]3(O)C[C@H](OC(=O)[C@H](O)[C@@H](NC(=O)c4ccccc4)c4ccccc4)C(C)=C1C3(C)C)[C@]1(OC(C)=O)CO[C@@H]1C[C@@H]2O` [Taxol], the “Cell survival rate (%)” value is reported as 63.88%.
